Source: patent US20120189563A1, “ORAL COMPOSITION FOR ALLEVIATING ULTRAVIOLET IRRADIATION-INDUCED DAMAGE” (Shiseido Company, Ltd., priority 2009, published 2012)
Read-outs that look alike come from different tables or passages of the source.

Assays:
[1] = system: human neonatal dermal fibroblast (Cryo NHDF-Neo); test: cells; settings: for effect of pre-irradiation addition on viable cells and cell death (in words): pre-irradiation addition 0.001 to 100 μM, UV-A 9 J/cm^2
Method: The ultraviolet irradiation after switching into a medium added with 0.1 μM (micro-molar) D-proline was employed as a positive control, while the ultraviolet irradiation to the medium still being free of such an added amino acid was employed as a negative control.
(degrees Celsius) for 40 hours.

[2] = system: Male hairless mice (Hos: HR-1); settings: Example 3, 10 mM in drinking water; for effect on UV-B-induced wrinkling (in words): P=0.55% in Mann-Whitney U test; for number of animals of each wrinkle score after the UV-B irradiation: UV(+) control: one scored 5, two 6, two 7, three 8
Text: (§1) Male hairless mice (Hos: HR-1, six-week old, Hoshino Laboratory Animals, Inc.) were employed and subjected to a partly modified method by Schwarz et al. (Haratake A. et al. J. Invest. Dermatol. 108:769-775, 1997.) in accordance with the repetitive UV-B irradiation method (Naganuma M. et al. J. Dermatol. Sci. 25:29-35, 2001. Schwartz E. J. Invest. Dermatol. 91:158-161, 1988.) whereby forming wrinkles. Thus, the dorsal region was irradiated with UV-B (light source: Toshiba FL-20 SE fluorescent lamp manufactured by Toshiba Electric) three times a week for 12 weeks. […] The total irradiation dose was 4.482 J/cm^2. The UV dose measured using UVRADIOMETER (UVR-305/365D (II), Topcon Corporation) was employed as a readout. During the UV-B irradiation, 10 mM D-methionine was given via a water supplier bottle. As a control, a tap water was given in the same manner. The water supplier bottle was exchanged once a week.
After the irradiation to the mice described above, the dorsal regions of the mice were photographed, and a partly modified method by Bissett et al. (Bissett D L. et al. Photochemistry and Photobiology 46:367-378, 1987.) was employed to evaluate the degree of wrinkling in accordance with the criteria indicated in Table 1 below. The wrinkle evaluation was performed separately by four observers, who thereafter consulted together to determine a score about the wrinkle grade (hereinafter, simply referred to as “score”).
During the UV-B irradiation, 10 mM L- or D-methionine was given via a water supplier bottle. The UV irradiation and the wrinkling determination were conducted by the methods described in Example 2.

[3] = system: Male hairless mice (Hos: HR-1)
Text: as §1
After the end of the UV irradiation, the skin thickness was measured using a thickness gauge (Mitsutoyo Corporation, PK-1012SU). The measured value of the skin thickness was designated as “skin thickness×2”, since the measurement was conducted by pinching the skin with the thickness gauge.

[4] = system: Male hairless mice (Hos: HR-1); settings: Example 2, 10 mM in drinking water
Text: as §1
After the irradiation to the mice described above, the dorsal regions of the mice were photographed, and a partly modified method by Bissett et al. (Bissett D L. et al. Photochemistry and Photobiology 46:367-378, 1987.) was employed to evaluate the degree of wrinkling in accordance with the criteria indicated in Table 1 below. […]

[5] = system: human neonatal dermal fibroblast (Cryo NHDF-Neo); test: Ultraviolet irradiation-induced damage test in cultured cell, post-irradiation addition (Alamar Blue); settings: UV-A 8 J/cm^2
Method: The cell employed was a commercially available human neonatal dermal fibroblast (Cryo NHDF-Neo, Sanko-Junyaku Co., Ltd.). This cell was inoculated at 2×10^5 cells/mL to a commercially available culture dish of 35 mm in diameter (BD FALCON 353001, Becton Dickinson Japan), where it was cultured in a commercially available cell culture medium (D-MEM (1 g/L glucose, Wako Pure Chemical Industries, Ltd.) supplemented with 10% fetal bovine serum and 1% antibiotic (15240-062, GIBCO) (hereinafter, referred to as “ordinary medium”). This cell was cultured for about 24 hours in a 5% CO2 and saturated water vapor atmosphere at 37° C. (degrees Celsius).
Thereafter, the culture medium for culturing the cell described above was switched to 1 mL of a BSO medium supplemented with a glutathione biosynthesis inhibitor BSO (L-buthionine-(S,R)-sulfoximine, Wako Pure Chemical Industries, Ltd.) at 1×10^−3%, where the culture was conducted for about 24 hours in a 5% CO2 and saturated water vapor atmosphere at 37° C. […] The BSO medium described above was prepared by a 200-fold dilution of a stock solution containing 0.2% BSO dissolved in ethyl alcohol with the ordinary medium described above.
Ferric chloride (II) was dissolved in a distilled water at 2×10^−3%, and the resultant solution was subjected to a 200-fold dilution (final concentration: 1×10^−5%) with a phosphate buffer solution PBS (+) containing calcium ion and magnesium ion to obtain a medium (hereinafter, referred to as “UV irradiation medium”), which was warmed preliminarily to 37° C. before use.
Before UV-A irradiation, the culture medium was replaced with 1 mL of the UV irradiation medium described above. […] The UV dose was measured using UV RADIOMETER UVR-3036/S (Topcon Corporation).
After the ultraviolet irradiation, the medium was switched back to the ordinary medium described above, and the culture was conducted in a 5% CO2 and saturated water vapor atmosphere at 37° C.
Thereafter, the culture medium was supplemented with Alamar Blue (trade mark, Invitrogen) at a final concentration of 10%, and its supernatant was determined for the fluorescent intensity three hours later with an excitation wavelength of 544 nm and a fluorescent wavelength of 590 nm as described by Ahmed S. A. et al. (J. Immunol. Method. 170, 211-224 (1994)) and in accordance with the manufacture's instruction.

[6] = Homo sapiens, Fibroblast, light or radiation study, read-out: percentage of the viable cell

| Compound | viability at 0.1 µM [1, 6] [%] | viability at 0.001 µM [1, 6] [%] | viability at 0.01 µM [1, 6] [%] | viability at 1 µM [1, 6] [%] | viability at 10 µM [1, 6] [%] | viability at 100 µM [1, 6] [%] | effect of pre-irradiation addition on viable cells and cell death (in words) [1] | effect on UV-B-induced wrinkling (in words) [2] | number of animals of each wrinkle score after the UV-B irradiation [2] | measured value of the skin thickness (skin thickness×2) ([3]; 10 mM in drinking water during 12 weeks UV-B, total 4.482 J/cm^2, UV(−)/H20 0.81 mm, UV(+)/H20 1.25 mm) [mm] | effect on UV-B-induced skin thickening (in words) ([3]; 10 mM in drinking water, UV-B total 4.482 J/cm^2, Bonferroni/Dunn test) | number of animals of each wrinkle score after the UV-B irradiation ([4]; UV-B total 4.482 J/cm^2, UV(+) control: 2 scored 4, two 5, one 6, one 7) | effect on UV-B-induced wrinkling (in words) ([4]; P=1.8% in Mann-Whitney U test) | percentage of the viable cell (positive control) ([5]; added at 0.1 μM, called positive control, negative control 64%) [%] | effect of post-irradiation addition on viable cells and cell death (in words) ([5]; post-irradiation addition 0.01 to 100 μM) | percentage of the viable cell ([5]; post-irradiation addition at 0.01 μM, negative control 64%) [%] | percentage of the viable cell ([5]; post-irradiation addition at 0.1 μM, negative control 64%) [%] | percentage of the viable cell ([5]; post-irradiation addition at 1 μM, negative control 64%) [%] | percentage of the viable cell ([5]; post-irradiation addition at 100 μM, negative control 64%) [%] |
| --- | --- | --- | --- | --- | --- | --- | --- | --- | --- | --- | --- | --- | --- | --- | --- | --- | --- | --- | --- |
| O=C(O)[C@H]1CCCN1 [D-proline, reference compound] | 100 | – | – | – | – | – | – | – | – | – | – | – | – | – | – | – | – | – | – |
| CSCC[C@H](N)C(=O)O [L-methionine] | 67 | 40 | 72 | 45 | 73 | 62 | an increased percentage of the viable cell and a reduced cell death | less effective in reducing the UV-B irradiation-induced wrinkling than D-methionine | one animal scored 4, two animals scored 5, two animals scored 6 and two animals scored 7 | – | – | – | – | – | – | – | – | – | – |
| CSCC[C@@H](N)C(=O)O [D-methionine] | 81 | – | 102 | 97 | 114 | 76 | an increased percentage of the viable cell and a reduced cell death | statistically significant reduction in this wrinkling | six animals scored 5 and two animals scored 6 | 1.00 | statistically significant reduction in this skin thickening | four animals scored 3, two animals scored 4 and one animal scored 5 | statistically significant reduction in this wrinkling | 82 | an increased percentage of the viable cell and a reduced cell death | 93 | 84 | 82 | 87 |
